Patent US20110081315A1, “NOVEL MACROCYCLIC INHIBITORS OF HEPATITIS C VIRUS REPLICATION” (INTERMUNE, INC., priority 2009, published 2011)

Tests used:
[1] = test system: hepatitis C replicon; test: hepatitis C replicon EC50 assay; assay type: cell-based; settings: Hepatitis C virus; hepatitis C replicon; read-out: EC50
Outline: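 Read-outs are IC50 for inhibition of the NS3/NS4 complex and EC50 in an HCV replicon system. Biochemical runs use 23° C. and a 50 mM Tris-HCl (pH 7.5) buffer with 15% glycerol, 10 mM DTT, 0.6 mM LDAO and 25 μM NS4A peptide.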

[2] = target: NS3/NS4 complexes (Hepatitis C virus genotype 1a, UniProt P27958); test: NS3/NS4 inhibition assay (IC50); assay type: biochemical; settings: NS3/NS4 activity; 23° C., 25 μM NS4A peptide
NS3/NS4 complexes, sequence (P27958 1027-1657, one chain of several): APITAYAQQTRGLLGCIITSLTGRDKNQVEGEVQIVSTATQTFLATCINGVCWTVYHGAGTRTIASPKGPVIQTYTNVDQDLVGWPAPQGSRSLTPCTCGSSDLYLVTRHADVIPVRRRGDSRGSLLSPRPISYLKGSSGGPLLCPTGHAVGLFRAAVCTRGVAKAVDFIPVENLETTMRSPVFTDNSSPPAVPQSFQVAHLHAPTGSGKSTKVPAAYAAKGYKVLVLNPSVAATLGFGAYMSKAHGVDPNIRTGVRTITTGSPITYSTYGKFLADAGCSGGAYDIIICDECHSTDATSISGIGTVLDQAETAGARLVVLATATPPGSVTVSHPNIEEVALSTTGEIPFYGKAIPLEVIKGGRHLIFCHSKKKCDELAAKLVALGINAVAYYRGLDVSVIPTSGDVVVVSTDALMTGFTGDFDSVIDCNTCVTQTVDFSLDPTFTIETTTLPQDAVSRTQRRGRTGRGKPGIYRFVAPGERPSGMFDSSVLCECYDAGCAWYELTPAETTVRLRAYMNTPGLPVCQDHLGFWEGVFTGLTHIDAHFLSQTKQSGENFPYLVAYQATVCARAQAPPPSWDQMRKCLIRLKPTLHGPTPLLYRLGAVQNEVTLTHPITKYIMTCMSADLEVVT
Outline: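 Enzyme IC50: NS3/NS4 complex, 23° C.; buffer Tris-HCl 50 mM pH 7.5 / glycerol 15% / DTT 10 mM / LDAO 0.6 mM / NS4A peptide 25 μM. Cellular: HCV replicon EC50.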

Row | SMILES | EC50 [1] [nM] | IC50 [2] [nM]
1 | CC(C)n1c(O[C@@H]2C[C@H]3C(=O)N[C@]4(C(=O)NS(=O)(=O)C5(C)CC5)C[C@H]4/C=C\CCCCC[C@H](NC(=O)OC(C)(C)C)C(=O)N3C2)nc2c(-c3csc(N4CCCCC4)n3)cccc21 [Compound 1706] | < 10 | < 10
2 | CC(C)n1c(O[C@@H]2C[C@H]3C(=O)N[C@]4(C(=O)NS(=O)(=O)C5(C)CC5)C[C@H]4/C=C\CCCCC[C@H](NC(=O)OC(C)(C)C)C(=O)N3C2)nc2c(-c3cncnc3)cccc21 [Compound 1707] | < 10 | < 10
3 | CC(C)n1c(O[C@@H]2C[C@H]3C(=O)N[C@]4(C(=O)NS(=O)(=O)C5(C)CC5)C[C@H]4/C=C\CCCCC[C@H](NC(=O)OC(C)(C)C)C(=O)N3C2)nc2c(-c3nc(-c4ccccc4)cs3)cccc21 [Compound 1708] | < 10 | < 10
4 | Cc1ccc(-c2csc(-c3cccc4c3nc(O[C@@H]3C[C@H]5C(=O)N[C@]6(C(=O)NS(=O)(=O)C7(C)CC7)C[C@H]6/C=C\CCCCC[C@H](NC(=O)OC(C)(C)C)C(=O)N5C3)n4C(C)C)n2)cc1 [Compound 1709] | 10 to 100 | < 10
5 | CC(C)n1c(O[C@@H]2C[C@H]3C(=O)N[C@]4(C(=O)NS(=O)(=O)C5(C)CC5)C[C@H]4/C=C\CCCCC[C@H](NC(=O)OC(C)(C)C)C(=O)N3C2)nc2c(-c3nc(-c4ccccc4F)cs3)cccc21 [Compound 1710] | 10 to 100 | < 10
6 | CC(C)n1c(O[C@@H]2C[C@H]3C(=O)N[C@]4(C(=O)NS(=O)(=O)C5(C)CC5)C[C@H]4/C=C\CCCCC[C@H](NC(=O)OC(C)(C)C)C(=O)N3C2)nc2c(-c3nc(-c4ccc(F)cc4)cs3)cccc21 [Compound 1711] | < 10 | < 10
7 | Cc1ccccc1-c1csc(-c2cccc3c2nc(O[C@@H]2C[C@H]4C(=O)N[C@]5(C(=O)NS(=O)(=O)C6(C)CC6)C[C@H]5/C=C\CCCCC[C@H](NC(=O)OC(C)(C)C)C(=O)N4C2)n3C(C)C)n1 [Compound 1712] | < 10 | < 10
8 | Cc1cccc(-c2csc(-c3cccc4c3nc(O[C@@H]3C[C@H]5C(=O)N[C@]6(C(=O)NS(=O)(=O)C7(C)CC7)C[C@H]6/C=C\CCCCC[C@H](NC(=O)OC(C)(C)C)C(=O)N5C3)n4C(C)C)n2)c1 [Compound 1713] | 10 to 100 | < 10
9 | CC(C)n1c(O[C@@H]2C[C@H]3C(=O)N[C@]4(C(=O)NS(=O)(=O)C5(C)CC5)C[C@H]4/C=C\CCCCC[C@H](NC(=O)OC(C)(C)C)C(=O)N3C2)nc2c(-c3nc(-c4ccccc4Cl)cs3)cccc21 [Compound 1714] | 10 to 100 | < 10
10 | COc1ccc(-c2csc(-c3cccc4c3nc(O[C@@H]3C[C@H]5C(=O)N[C@]6(C(=O)NS(=O)(=O)C7(C)CC7)C[C@H]6/C=C\CCCCC[C@H](NC(=O)OC(C)(C)C)C(=O)N5C3)n4C(C)C)n2)cc1 [Compound 1715] | 10 to 100 | < 10
11 | CC(C)n1c(O[C@@H]2C[C@H]3C(=O)N[C@]4(C(=O)NS(=O)(=O)C5(C)CC5)C[C@H]4/C=C\CCCCC[C@H](NC(=O)OC(C)(C)C)C(=O)N3C2)nc2c(-c3nc(-c4ccc(-c5ccccc5)cc4)cs3)cccc21 [Compound 1716] | 10 to 100 | < 10
12 | Cc1ccc(-c2csc(-c3cccc4c3nc(O[C@@H]3C[C@H]5C(=O)N[C@]6(C(=O)NS(=O)(=O)C7(C)CC7)C[C@H]6/C=C\CCCCC[C@H](NC(=O)OC(C)(C)C)C(=O)N5C3)n4C(C)C)n2)c(C)c1 [Compound 1717] | 10 to 100 | < 10
13 | Cc1cccc(Cc2csc(-c3cccc4c3nc(O[C@@H]3C[C@H]5C(=O)N[C@]6(C(=O)NS(=O)(=O)C7(C)CC7)C[C@H]6/C=C\CCCCC[C@H](NC(=O)OC(C)(C)C)C(=O)N5C3)n4C(C)C)n2)c1 [Compound 1718] | < 10 | < 10
14 | Cc1ccc(Cc2csc(-c3cccc4c3nc(O[C@@H]3C[C@H]5C(=O)N[C@]6(C(=O)NS(=O)(=O)C7(C)CC7)C[C@H]6/C=C\CCCCC[C@H](NC(=O)OC(C)(C)C)C(=O)N5C3)n4C(C)C)n2)cc1 [Compound 1719] | < 10 | < 10
15 | CC(C)n1c(O[C@@H]2C[C@H]3C(=O)N[C@]4(C(=O)NS(=O)(=O)C5(C)CC5)C[C@H]4/C=C\CCCCC[C@H](NC(=O)OC(C)(C)C)C(=O)N3C2)nc2c(-c3nc(Cc4ccccc4F)cs3)cccc21 [Compound 1720] | < 10 | < 10
16 | CC(C)n1c(O[C@@H]2C[C@H]3C(=O)N[C@]4(C(=O)NS(=O)(=O)C5(C)CC5)C[C@H]4/C=C\CCCCC[C@H](NC(=O)OC(C)(C)C)C(=O)N3C2)nc2c(-c3nc(Cc4ccc(F)c(F)c4)cs3)cccc21 [Compound 1721] | < 10 | < 10
17 | CC(C)n1c(O[C@@H]2C[C@H]3C(=O)N[C@]4(C(=O)NS(=O)(=O)C5(C)CC5)C[C@H]4/C=C\CCCCC[C@H](NC(=O)OC(C)(C)C)C(=O)N3C2)nc2c(-c3nc(Cc4cc(F)cc(F)c4)cs3)cccc21 [Compound 1722] | 10 to 100 | < 10

Row | SMILES | EC50 [1] [nM] | IC50 [2] [nM]
18 | COc1ccc(Cc2csc(-c3cccc4c3nc(O[C@@H]3C[C@H]5C(=O)N[C@]6(C(=O)NS(=O)(=O)C7(C)CC7)C[C@H]6/C=C\CCCCC[C@H](NC(=O)OC(C)(C)C)C(=O)N5C3)n4C(C)C)n2)cc1OC [Compound 1723] | < 10 | < 10
19 | CC(C)n1c(O[C@@H]2C[C@H]3C(=O)N[C@]4(C(=O)NS(=O)(=O)C5(C)CC5)C[C@H]4/C=C\CCCCC[C@H](NC(=O)OC(C)(C)C)C(=O)N3C2)nc2c(-c3nc(Cc4cccc(Cl)c4)cs3)cccc21 [Compound 1724] | 10 to 100 | < 10
20 | CC(C)n1c(O[C@@H]2C[C@H]3C(=O)N[C@]4(C(=O)NS(=O)(=O)C5(C)CC5)C[C@H]4/C=C\CCCCC[C@H](NC(=O)OC(C)(C)C)C(=O)N3C2)nc2c(-c3nc(Cc4cccc(F)c4)cs3)cccc21 [Compound 1725] | < 10 | < 10
21 | CC(C)n1c(O[C@@H]2C[C@H]3C(=O)N[C@]4(C(=O)NS(=O)(=O)C5(C)CC5)C[C@H]4/C=C\CCCCC[C@H](NC(=O)OC(C)(C)C)C(=O)N3C2)nc2c(-c3nc(Cc4ccc(F)cc4)cs3)cccc21 [Compound 1726] | < 10 | < 10
22 | CC(C)n1c(O[C@@H]2C[C@H]3C(=O)N[C@]4(C(=O)NS(=O)(=O)C5(C)CC5)C[C@H]4/C=C\CCCCC[C@H](NC(=O)OC(C)(C)C)C(=O)N3C2)nc2c(-c3nc(Cc4ccccc4Cl)cs3)cccc21 [Compound 1727] | < 10 | < 10
23 | CC(C)n1c(O[C@@H]2C[C@H]3C(=O)N[C@]4(C(=O)NS(=O)(=O)C5(C)CC5)C[C@H]4/C=C\CCCCC[C@H](Nc4ccc(F)cc4)C(=O)N3C2)nc2c(-c3nc(C4CCCC4)cs3)cccc21 [Compound 1728] | > 100 | < 10
24 | CC(C)n1c(O[C@@H]2C[C@H]3C(=O)N[C@]4(C(=O)NS(=O)(=O)C5(C)CC5)C[C@H]4/C=C\CCCCC[C@H](Nc4cccc(F)c4)C(=O)N3C2)nc2c(-c3nc(C4CCCC4)cs3)cccc21 [Compound 1729] | 10 to 100 | < 10
25 | CC(C)n1c(O[C@@H]2C[C@H]3C(=O)N[C@]4(C(=O)NS(=O)(=O)C5(C)CC5)C[C@H]4/C=C\CCCCC[C@H](NC(=O)OC4CCCC4)C(=O)N3C2)nc2c(-c3nc(-c4ccccc4)cs3)cccc21 [Compound 1730] | < 10 | < 10
26 | CC(C)n1c(O[C@@H]2C[C@H]3C(=O)N[C@]4(C(=O)NS(=O)(=O)C5(C)CC5)C[C@H]4/C=C\CCCCC[C@H](NC(=O)O[C@@H]4C[C@@H]5C[C@@H]5C4)C(=O)N3C2)nc2c(-c3nc(-c4ccccc4)cs3)cccc21 [Compound 1731] | < 10 | < 10
27 | CC(C)n1c(O[C@@H]2C[C@H]3C(=O)N[C@]4(C(=O)NS(=O)(=O)C5(C)CC5)C[C@H]4/C=C\CCCCC[C@H](NC(=O)N4CCCC4)C(=O)N3C2)nc2c(-c3nc(-c4ccccc4)cs3)cccc21 [Compound 1732] | < 10 | < 10
28 | COc1ccc2c(O[C@@H]3C[C@H]4C(=O)N[C@]5(C(=O)NS(=O)(=O)C6(C)CC6)C[C@H]5/C=C\CCCCC[C@H](NC(=O)N5CCCC5)C(=O)N4C3)cc(-c3nc(C(C)C)cs3)nc2c1C [Compound 1733] | < 10 | < 10
29 | CC(C)n1c(O[C@@H]2C[C@H]3C(=O)N[C@]4(C(=O)NS(=O)(=O)N(C)C)C[C@H]4/C=C\CCCCC[C@H](NC(=O)OC(C)(C)C)C(=O)N3C2)nc2c(-c3nc(-c4ccccn4)cs3)cccc21 [Compound 1735] | < 10 | < 10
30 | CC(C)n1c(O[C@@H]2C[C@H]3C(=O)N[C@]4(C(=O)NS(=O)(=O)N(C)C)C[C@H]4/C=C\CCCCC[C@H](NC(=O)OC(C)(C)C)C(=O)N3C2)nc2c(-c3nc(-c4cccnc4)cs3)cccc21 [Compound 1736] | < 10 | < 10
31 | CC(C)n1c(O[C@@H]2C[C@H]3C(=O)N[C@]4(C(=O)NS(=O)(=O)N(C)C)C[C@H]4/C=C\CCCCC[C@H](NC(=O)OC(C)(C)C)C(=O)N3C2)nc2c(-c3nc(-c4ccncc4)cs3)cccc21 [Compound 1737] | < 10 | < 10
32 | COc1ccc(-c2cccc3c2nc(O[C@@H]2C[C@H]4C(=O)N[C@]5(C(=O)NS(=O)(=O)N(C)C)C[C@H]5/C=C\CCCCC[C@H](NC(=O)OC(C)(C)C)C(=O)N4C2)n3C(C)C)cn1 [Compound 1739] | 10 to 100 | < 10
33 | CC(C)n1c(O[C@@H]2C[C@H]3C(=O)N[C@]4(C(=O)NS(=O)(=O)N(C)C)C[C@H]4/C=C\CCCCC[C@H](NC(=O)OC(C)(C)C)C(=O)N3C2)nc2c(-c3csc(-c4ccccc4)n3)cccc21 [Compound 1740] | 10 to 100 | < 10
34 | CC(C)n1c(O[C@@H]2C[C@H]3C(=O)N[C@]4(C(=O)NS(=O)(=O)N(C)C)C[C@H]4/C=C\CCCCC[C@H](NC(=O)OC(C)(C)C)C(=O)N3C2)nc2c(-c3csc(N4CCOCC4)n3)cccc21 [Compound 1741] | < 10 | < 10
